The values below come from article PMC9226124, “Macrocycle-stabilization of its interaction with 14-3-3 increases plasma membrane localization and activity of CFTR” (Nature Communications, 2022).

“Also recorded” adds a separate entry of the source.

In experiment [1] the target is T1, FITC-labeled CFTRpS753pS768 peptide (no 14-3-3) (Homo sapiens, UniProt P13569).
T1 construct: made in house; host or cells: synthetic peptide
As to the kind of experiment: Dose-response FP control assay in the absence of 14-3-3. The conditions noted are these: No 14-3-3. Format: binding. The method, boiled down: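 Control run without 14-3-3: FITC-CFTR pS753/pS768 peptide (100 nM or 10 nM) with compound titrated in twofold dilutions in 10 mM HEPES pH 7.4, 150 mM NaCl, 0.1% Tween20, 1 mg/mL BSA. Fluorescence polarization read at ex 485/em 535 nm, background subtracted, n = 3. Curves fitted by four-parameter log(agonist) vs. response.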

Experiment [2] concerns the target T2, 14-3-3/full-length CFTR interaction (Homo sapiens, UniProt P13569, DEL508-508).
T2 construct: expressed in transfected cells; host or cells: HEK 293 cells expressing F508del-CFTR (Carlile et al. 2015)
Put plainly: Immunoprecipitation (pull-down) from HEK293 cells expressing F508del-CFTR. Format: cell-based. The conditions noted are these: 24 h, 10 μM. How it is done: Background polarization was subtracted from all values, n = 3 technical replicates. g Immunoprecipitation study to show the effect of CY007424 on the interaction between of CFTR and 14-3-3 proteins. CFTR and separately 14-3-3 immunoprecipitation from HEK293 cells expressing F508del-CFTR after 24 h of CY007424 (10μM) (424) or vehicle alone (CON). LYS: cellular lysate prior to preclear, SUP: supernatant after specific bead incubation, PC: second preclear, LW: last wash after the immunoprecipitation IP are the specific antibody beads. IP, upper blot: probed with CFTR AB, lower blot: probed with 14-3-3 AB. Source data are provided as a Source Data file.
CFTR monoclonal-mAb (M3A7, ab270238 abcam) and 14-3-3 monoclonal-Rbt-Ab (Y62, ab32560 abcam) were separately covalently linked to Protein A–Sepharose (Pharmacia, NJ, U.S.A.) by cross-linking with dimethyl pimelimidate (DMP) utilizing standard procedures.
Briefly, Protein A–Sepharose beads were washed two times in 0.2 M sodium borate, pH 9.0 for 5 min each. The beads were then mixed with antibody (for 1 mL of beads use 0.5 mg of antibody). These were placed on a rotator and mixed continuously for 2 h at room temperature (RT). The beads were washed with sodium borate twice, followed by one wash with 0.2 M triethanolamine, pH 8.5. An equal volume of 40 mM DMP in 0.2 M triethanolamine was added. The mixture was mixed for 1 h at RT and the beads then collected. The beads were incubated in 0.2 M ethanolamine, pH 8.2 for 5 min at RT. Beads were washed with the sodium borate solution, and stored at 4 °C until use. Beads were rinsed in lysis buffer before use.
Once HEK 293 cells expressing F508del-CFTR (cells earlier described by Carlile et al. 2015)[29] were treated, they were harvested and immunoprecipitated as follows. Cells were washed twice in sterile TBS, trypsin-treated and transferred to a Falcon tube with media and sera and centrifuged at 800 g at RT for 5 min. Pellets were washed twice in TBS prewarmed to 37 °C and centrifuged at 800–1000 g for 5 min at 4 °C. […]

T2 sequence (P13569 with tags, fused parts or gaps DEL508-508): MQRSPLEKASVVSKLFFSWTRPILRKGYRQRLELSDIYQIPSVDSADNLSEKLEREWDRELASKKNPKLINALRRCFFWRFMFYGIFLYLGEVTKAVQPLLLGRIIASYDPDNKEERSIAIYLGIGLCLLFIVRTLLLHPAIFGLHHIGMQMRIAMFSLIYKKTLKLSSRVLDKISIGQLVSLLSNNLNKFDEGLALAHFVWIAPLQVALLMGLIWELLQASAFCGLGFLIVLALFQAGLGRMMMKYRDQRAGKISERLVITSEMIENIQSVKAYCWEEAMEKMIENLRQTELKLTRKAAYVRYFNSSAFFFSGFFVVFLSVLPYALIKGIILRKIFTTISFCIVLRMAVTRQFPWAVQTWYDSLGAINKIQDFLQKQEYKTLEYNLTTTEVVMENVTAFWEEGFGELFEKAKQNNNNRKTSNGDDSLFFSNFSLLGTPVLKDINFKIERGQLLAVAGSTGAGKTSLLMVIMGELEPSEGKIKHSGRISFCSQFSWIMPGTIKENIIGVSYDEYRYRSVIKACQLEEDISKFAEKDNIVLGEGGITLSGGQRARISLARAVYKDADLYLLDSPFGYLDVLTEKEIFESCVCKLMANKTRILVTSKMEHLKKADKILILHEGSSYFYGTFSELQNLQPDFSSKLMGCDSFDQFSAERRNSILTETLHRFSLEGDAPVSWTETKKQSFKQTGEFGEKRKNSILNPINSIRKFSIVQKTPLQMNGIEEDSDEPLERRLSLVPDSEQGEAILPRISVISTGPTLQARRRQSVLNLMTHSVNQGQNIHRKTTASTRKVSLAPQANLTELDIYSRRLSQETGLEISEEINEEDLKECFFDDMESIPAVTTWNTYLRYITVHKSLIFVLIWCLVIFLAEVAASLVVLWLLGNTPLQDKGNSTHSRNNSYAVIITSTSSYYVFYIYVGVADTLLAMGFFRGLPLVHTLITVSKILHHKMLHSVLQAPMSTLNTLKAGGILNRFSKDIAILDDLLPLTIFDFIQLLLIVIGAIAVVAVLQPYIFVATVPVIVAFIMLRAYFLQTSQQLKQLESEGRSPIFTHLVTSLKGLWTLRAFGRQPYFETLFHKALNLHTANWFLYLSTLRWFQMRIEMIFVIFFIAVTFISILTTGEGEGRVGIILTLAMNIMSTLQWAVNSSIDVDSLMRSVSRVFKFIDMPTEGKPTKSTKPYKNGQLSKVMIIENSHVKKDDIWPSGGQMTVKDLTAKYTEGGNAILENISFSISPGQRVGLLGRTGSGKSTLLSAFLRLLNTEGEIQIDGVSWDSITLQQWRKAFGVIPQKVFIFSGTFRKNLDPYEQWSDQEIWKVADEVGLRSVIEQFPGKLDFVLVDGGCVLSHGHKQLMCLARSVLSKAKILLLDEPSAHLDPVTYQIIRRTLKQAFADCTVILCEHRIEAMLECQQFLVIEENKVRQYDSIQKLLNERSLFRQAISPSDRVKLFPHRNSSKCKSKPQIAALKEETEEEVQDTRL
T1 sequence (P13569 747-774 limits assumed): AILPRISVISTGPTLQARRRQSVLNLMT

`N=C(N)NCCCC1NCc2ccccc2Sc2ccccc2CNC(=O)C(Cc2ccc(O)cc2)NC(=O)C(CCCN)NC1=O` (stereo not drawn) [CY007424]: the FP signal in experiment [1] (compound 476.8 pM) amounted to 4; in experiment [1] (compound 953.7 pM), 5; in experiment [1] (compound 1.90735e-9 M), 5; in experiment [1] (compound 3.8147e-9 M), 7; in experiment [1] (compound 7.6294e-9 M), 4; in experiment [1] (compound 1.52588e-8 M) it was 7. Further, the FP signal in experiment [1] (compound 3.05176e-8 M) is given as 6; in experiment [1] (compound 6.10352e-8 M) it was 5; in experiment [1] (compound 1.2207e-7 M) it was 5; in experiment [1] (compound 2.44141e-7 M), 7; in experiment [1] (compound 4.88281e-7 M) it was 7; in experiment [1] (compound 9.76563e-7 M), 7. For the same compound, the FP signal stood at 6 in experiment [1] (compound 1.95313e-6 M); 12 in experiment [1] (compound 3.90625e-6 M); 27 in experiment [1] (compound 7.8125e-6 M); 52 in experiment [1] (compound 1.5625e-5 M); 122 in experiment [1] (compound 3.125e-5 M); 193 in experiment [1] (compound 6.25e-5 M). Also, the FP signal worked out at 244 in experiment [1] (compound 0.000125 M), 263 in experiment [1] (compound 0.00025 M), 257 in experiment [1] (compound 0.0005 M) and 271 in experiment [1] (compound 0.001 M). Besides, in experiment [2], the “stabilizing effect on the 14-3-3/CFTR interaction in cells (pull-down)” value (“stabilizing effect” for short) is “stabilizing effect; also recorded: increased CFTR binding to 14-3-3”.

Consider `CC1NC(=O)C(CCCNC(=N)N)NC(=O)C2CCCN2Cc2cccc(c2)-c2ccccc2CNC(=O)C(CCCNC(=N)N)NC1=O` (stereo not drawn) [CY007476], for which the FP signal in experiment [1] (compound 476.8 pM) worked out at 1; in experiment [1] (compound 953.7 pM) it was 3; in experiment [1] (compound 1.90735e-9 M), 2; in experiment [1] (compound 3.8147e-9 M) it was 5; in experiment [1] (compound 7.6294e-9 M), 5; in experiment [1] (compound 1.52588e-8 M) it was 4. Besides, the FP signal in experiment [1] (compound 3.05176e-8 M) amounted to 6; in experiment [1] (compound 6.10352e-8 M) it was 6; in experiment [1] (compound 1.2207e-7 M), 3; in experiment [1] (compound 2.44141e-7 M), 4; in experiment [1] (compound 4.88281e-7 M), 4; in experiment [1] (compound 9.76563e-7 M), 5. Moreover, the FP signal in experiment [1] (compound 1.95313e-6 M) was 5; in experiment [1] (compound 3.90625e-6 M) it was 6; in experiment [1] (compound 7.8125e-6 M), 10; in experiment [1] (compound 1.5625e-5 M), 13; in experiment [1] (compound 3.125e-5 M), 24; in experiment [1] (compound 6.25e-5 M), 59. Moreover, the FP signal in experiment [1] (compound 0.000125 M) was 124; in experiment [1] (compound 0.00025 M) it was 186; in experiment [1] (compound 0.0005 M), 230; in experiment [1] (compound 0.001 M) it was 257. In experiment [2], the “stabilizing effect” value is “did not show a stabilizing effect; also recorded: did not enhance binding of 14-3-3”.

With `CN1CC(=O)NC(CCCNC(=N)N)C(=O)NC(CCC(N)=O)C(=O)NC(CCCNC(=N)N)C(=O)NCc2ccccc2-c2cccc(c2)C1` (stereo not drawn) [CY007491], the FP signal in experiment [1] (compound 476.8 pM) was found to be 4; in experiment [1] (compound 953.7 pM) it was 5; in experiment [1] (compound 1.90735e-9 M) it was 5; in experiment [1] (compound 3.8147e-9 M), 6; in experiment [1] (compound 7.6294e-9 M), 4; in experiment [1] (compound 1.52588e-8 M), 6. The FP signal in experiment [1] (compound 3.05176e-8 M) is recorded as 3; in experiment [1] (compound 6.10352e-8 M), 5; in experiment [1] (compound 1.2207e-7 M) it was 8; in experiment [1] (compound 2.44141e-7 M), 6; in experiment [1] (compound 4.88281e-7 M), 5; in experiment [1] (compound 9.76563e-7 M), 5. Further, the FP signal in experiment [1] (compound 1.95313e-6 M) is 6; in experiment [1] (compound 3.90625e-6 M), 7; in experiment [1] (compound 7.8125e-6 M) it was 7; in experiment [1] (compound 1.5625e-5 M), 9; in experiment [1] (compound 3.125e-5 M), 18; in experiment [1] (compound 6.25e-5 M), 35. The FP signal in experiment [1] (compound 0.000125 M) is listed as 83; in experiment [1] (compound 0.00025 M) it was 142; in experiment [1] (compound 0.0005 M) it was 193; in experiment [1] (compound 0.001 M), 240. Besides, the “stabilizing effect” value in experiment [2] is “did not show a stabilizing effect; also recorded: did not enhance binding of 14-3-3”.
